CN1CCN(C2=Nc3cc(Cl)ccc3Nc3ccccc32)CC1
Details	solubility (mole fraction)
in 1,2-dichloroethane, 283.15 K	0.0117
in 1,2-dichloroethane, 288.15 K	0.0157
in 1,2-dichloroethane, 293.15 K	0.0183
in 1,2-dichloroethane, 298.15 K	0.0215
in 1,2-dichloroethane, 303.15 K	0.0243
in 1,2-dichloroethane, 308.15 K	0.0285
in 1,2-dichloroethane, 313.15 K	0.0314
in 1,2-dichloroethane, 318.15 K	0.0386
in 1,2-dichloroethane, 323.15 K	0.0464
in 1,2-dichloroethane, 328.15 K	0.0573
in 1,2-dichloroethane, 333.15 K	0.0648
in DMF, 283.15 K	0.0781
in DMF, 288.15 K	0.0844
in DMF, 293.15 K	0.0893
in DMF, 298.15 K	0.0936
in DMF, 303.15 K	0.101
in DMF, 308.15 K	0.111
in DMF, 313.15 K	0.122
in DMF, 318.15 K	0.133
in DMF, 323.15 K	0.145
in DMF, 328.15 K	0.155
in DMF, 333.15 K	0.17
in DMSO, 293.15 K	0.0596
in DMSO, 298.15 K	0.064
in DMSO, 303.15 K	0.0709
in DMSO, 308.15 K	0.0836
in DMSO, 313.15 K	0.0949
in DMSO, 318.15 K	0.109
in DMSO, 323.15 K	0.119
in DMSO, 328.15 K	0.139
in DMSO, 333.15 K	0.159
in NMP, 283.15 K	0.0305
in NMP, 288.15 K	0.0406
in NMP, 293.15 K	0.0474
in NMP, 298.15 K	0.0525
in NMP, 303.15 K	0.0606
in NMP, 308.15 K	0.0687
in NMP, 313.15 K	0.075
in NMP, 318.15 K	0.0827
in NMP, 323.15 K	0.0987
in NMP, 328.15 K	0.113
in NMP, 333.15 K	0.118
in acetone, 283.15 K	0.00791
in acetone, 288.15 K	0.00914
in acetone, 293.15 K	0.0122
in acetone, 298.15 K	0.0139
in acetone, 303.15 K	0.0164
in acetone, 308.15 K	0.018
in acetone, 313.15 K	0.0201
in acetone, 318.15 K	0.0236
in acetone, 323.15 K	0.0278
in benzene, 283.15 K	0.00583
in benzene, 288.15 K	0.00619
in benzene, 293.15 K	0.00676
in benzene, 298.15 K	0.00771
in benzene, 303.15 K	0.00967
in benzene, 308.15 K	0.0119
in benzene, 313.15 K	0.0152
in benzene, 318.15 K	0.0181
in benzene, 323.15 K	0.0208
in benzene, 328.15 K	0.0259
in benzene, 333.15 K	0.0303
in ethanol, 283.15 K	0.0057
in ethanol, 288.15 K	0.00581
in ethanol, 293.15 K	0.00644
in ethanol, 298.15 K	0.00702
in ethanol, 303.15 K	0.00767
in ethanol, 308.15 K	0.00837
in ethanol, 313.15 K	0.0089
in ethanol, 318.15 K	0.0103
in ethanol, 323.15 K	0.0112
in ethanol, 328.15 K	0.0128
in ethanol, 333.15 K	0.0158
in isopropanol, 283.15 K	0.00272
in isopropanol, 288.15 K	0.00278
in isopropanol, 293.15 K	0.00296
in isopropanol, 298.15 K	0.00327
in isopropanol, 303.15 K	0.00374
in isopropanol, 308.15 K	0.0044
in isopropanol, 313.15 K	0.00503
in isopropanol, 318.15 K	0.00591
in isopropanol, 323.15 K	0.00643
in isopropanol, 328.15 K	0.00846
in isopropanol, 333.15 K	0.0103
in methanol, 283.15 K	0.00638
in methanol, 288.15 K	0.00648
in methanol, 293.15 K	0.00713
in methanol, 298.15 K	0.00785
in methanol, 303.15 K	0.0088
in methanol, 308.15 K	0.00975
in methanol, 313.15 K	0.0103
in methanol, 318.15 K	0.0109
in methanol, 323.15 K	0.0118
in methanol, 328.15 K	0.0143
in n-propanol, 283.15 K	0.00617
in n-propanol, 288.15 K	0.00619
in n-propanol, 293.15 K	0.00669
in n-propanol, 298.15 K	0.00754
in n-propanol, 303.15 K	0.00794
in n-propanol, 308.15 K	0.00863
in n-propanol, 313.15 K	0.0109
in n-propanol, 318.15 K	0.0127
in n-propanol, 323.15 K	0.0142
in n-propanol, 328.15 K	0.0171
in n-propanol, 333.15 K	0.0199
in toluene, 283.15 K	0.00352
in toluene, 288.15 K	0.00465
in toluene, 293.15 K	0.00549
in toluene, 298.15 K	0.00651
in toluene, 303.15 K	0.0075
in toluene, 308.15 K	0.00858
in toluene, 313.15 K	0.0105
in toluene, 318.15 K	0.0118
in toluene, 323.15 K	0.014
in toluene, 328.15 K	0.0164
in toluene, 333.15 K	0.0202
